Test results from patent publication US20230201232A1, “COMPOSITION FOR AMELIORATION, PREVENTION OR TREATMENT OF HAIR LOSS, COMPRISING CATECHIN 7-O-beta-D-APIOFURANOSIDE AS ACTIVE INGREDIENT” (ANPOLY INC., priority 2020, published 2023).

Key:
[1] = test system: dermal papilla cells (HFDPC); settings: H2O2 at 600 µM
[2] = test system: production of dihydrotestosterone (DHT) from testosterone in dermal papilla cells (HFDPC); experiment: Dihydrotestosterone production inhibitory activity assay (DHT ELISA); format: cell-based, human; settings: HFDPC treated with 20 nM testosterone; compound at 125 µg/ml, 150 µg/ml, 1100 µg/ml; FIG. 3
Protocol: (§1) HFDPC cells were inoculated in a papilla cell-specific medium (PromoCell, Heidelberg, Germany or Cell biologics Inc, IL, USA) recommended by the supplier, subcultured for 24 to 48 hours at 37° C. and 5% CO2 conditions, and used for experiments.
Quantitative analysis of dihydrotestosterone (DHT) was performed by immunochemical quantitative analysis using an ELISA kit. A DHT assay ELISA kit was purchased from Alpco (NH, USA) and used. The experiment using the kit was performed according to the instructions provided by the manufacturer, and the result was derived by converting the amount of antigen (pg/µg) per volume (ml) of cell lysate into a concentration unit.

PARP-1 = experiment: Western blot, PARP-1 protein expression in H2O2-treated dermal papilla cells; format: cell-based, human; settings: HFDPC, 600 µM H2O2, compound at each concentration; FIG. 4
Protocol: as §1
(§2) After treating the dermal papilla cells (HFDPC) with H2O2 and the sample, the cells were collected at each time zone and the cells were lysed in a cell lysis buffer (RIPA buffer). After the sample was centrifuged at 13,000 g for about 10 to 15 minutes, only the supernatant was taken. The protein concentration of the supernatant was measured by a BCA protein assay kit (Bio-Rad, CA, USA) and then heated at 95° C. for 10 minutes. The prepared sample was electrophoresed on SDS-polyacrylamide gel, transferred to a polyvinylidenedifluoride membrane (PVDF, Bio-rad, CA, USA), blocked with 5% BSA, and reacted with the indicated specific antibody. Then, HRP-conjugated secondary antibody (Santacruz, CA, USA) was reacted with the sample and detected by ECL system (Bio-Rad, MO, USA). As primary antibodies against Bax-1, Bcl-2, PARP-1, and β-actin, Santacruz antibodies (CA, USA) were used.

TGF-β1 = experiment: ELISA, TGF-β1 expression in H2O2-treated dermal papilla cells; format: cell-based, human; settings: FIG. 5B
Protocol: as §1
(§3) An ELISA kit was purchased and used to perform immunochemical quantitative analysis related to hair growth promotion and hair loss inhibition. TGF-β and IGF-1 kits were purchased from R&D systems (CA, USA) and used. The test was conducted using each kit according to the supplier’s manual, and the result was derived by converting the amount (pg or µg) of antigen per volume (ml) of cell lysate into a concentration unit.

Bcl-2 = experiment: Western blot, Bcl-2 protein expression in H2O2-treated dermal papilla cells; format: cell-based, human; settings: HFDPC, 600 µM H2O2, compound at each concentration; FIG. 4
Protocol: as §1, §2

IGF-1 = experiment: ELISA, IGF-1 expression in H2O2-treated dermal papilla cells; format: cell-based, human; settings: FIG. 5A
Protocol: as §1, §3

Bax = experiment: Western blot, Bax protein expression in H2O2-treated dermal papilla cells; format: cell-based, human; settings: HFDPC, 600 µM H2O2, pretreatment with compound at each concentration; FIG. 4
Protocol: as §1, §2

Structure (SMILES) | apoptosis [1] [%] | inhibition of DHT production [2] | protein expression level of PARP-1 (PARP-1) | expression of TGF-β1 (TGF-β1) | expression of Bcl-2 (Bcl-2) | expression of IGF-1 (IGF-1) | expression of Bax (Bax)
OO [Hydrogen peroxide (H2O2), Hydrogen peroxide] | 50 | – | – | – | – | – | –
OC[C@@]1(O)COC(Oc2cc(O)c3c(c2)O[C@H](c2ccc(O)c(O)c2)[C@@H](O)C3)[C@@H]1O (stereo in doubt) [catechin 7-O-β-D-apiofuranoside] | – | effect of inhibiting DHT production was statistically significant in a concentration-dependent manner | significantly inhibited the protein expression level of PARP-1 in a concentration-dependent manner | inhibit the expression of TGF-β1 in a concentration-dependent manner | significantly increased the expression of Bcl-2 in a concentration-dependent manner | promote the expression of IGF conducive to hair growth in a concentration-dependent manner | expression of Bax was significantly reduced in a concentration-dependent manner
